# Values joined by “and” are separate entries in the source; they are usually repeats but may differ in a detail not shown here. Equal entries are not always repeated. Where two headings read alike, the source gives them in different places.
# How the values were obtained:
# AChE in SH-SY5Y cells = AChE in SH-SY5Y cells (Homo sapiens, UniProt P22303); assay: cell-based
# recombinant human AChE [1] = molecular target: T1, recombinant human AChE (Homo sapiens, UniProt P22303); assay: biochemical; assay type: biochemical; conditions: for AC50: AC50 (uM)
# [2] = molecular target: AChE in neural stem cell spheroids (Homo sapiens, UniProt P22303); assay: cell-based; conditions: for IC50: potency (IC50)
# recombinant human AChE [3] = molecular target: T1, recombinant human AChE; assay: biochemical
# recombinant human AChE [4] = molecular target: T1, recombinant human AChE; assay: biochemical; remark: listed apart in the source
# [5] = molecular target: AChE in SH-SY5Y spheroids (Homo sapiens, UniProt P22303); assay: cell-based; conditions: potency (IC50)
# recombinant human AChE [6] = molecular target: T1, recombinant human AChE
# [7] = molecular target: AChE in neural stem cells (Homo sapiens, UniProt P22303); assay: cell-based
# recombinant human AChE [8] = molecular target: T1, recombinant human AChE; assay: biochemical; conditions: potency (IC50), Enzyme with microsomes
# [9] = potency (IC50), SH-SY5Y cells monolayer
# [10] = Neural stem cell spheroid (24 h)
# [11] = Neural stem cell spheroid (48 h)
# Throughout, for IR or R: key: Reversible (R); Irreversible (IR); ND, not detected in enzyme-based AChE inhibition assay from current study.
# AChE in neural stem cell spheroids, sequence (P22303 32-614): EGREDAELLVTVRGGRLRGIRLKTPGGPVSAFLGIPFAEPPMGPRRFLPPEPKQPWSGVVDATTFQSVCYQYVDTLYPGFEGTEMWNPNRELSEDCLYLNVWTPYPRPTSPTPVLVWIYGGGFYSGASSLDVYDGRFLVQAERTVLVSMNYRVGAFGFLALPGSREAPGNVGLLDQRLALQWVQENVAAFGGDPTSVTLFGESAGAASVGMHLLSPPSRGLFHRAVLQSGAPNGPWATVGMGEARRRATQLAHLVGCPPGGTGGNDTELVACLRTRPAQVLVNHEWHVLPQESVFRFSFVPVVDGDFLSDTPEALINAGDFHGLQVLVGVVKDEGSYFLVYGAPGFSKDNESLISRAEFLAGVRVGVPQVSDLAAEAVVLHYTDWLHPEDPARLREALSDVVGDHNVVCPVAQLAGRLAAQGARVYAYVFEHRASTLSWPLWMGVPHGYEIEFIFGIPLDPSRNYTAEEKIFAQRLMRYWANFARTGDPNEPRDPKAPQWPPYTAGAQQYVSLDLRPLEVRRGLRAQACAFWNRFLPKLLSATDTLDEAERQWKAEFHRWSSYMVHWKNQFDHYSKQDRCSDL
# AChE in SH-SY5Y cells, sequence (P22303 32-614): as above
# AChE in SH-SY5Y spheroids, sequence (P22303 32-614): as above
# AChE in neural stem cells, sequence (P22303 32-614): as above
# T1 sequence (P22303 32-614): as above
SMILES,CC-v2 (curve classes) (AChE in SH-SY5Y cells),IC50 (AChE in SH-SY5Y cells; IC50 (uM)),IC50 (AChE in SH-SY5Y cells; [9]) [µM],AC50 (recombinant human AChE [1]),"IC50 [2, 10] [µM]","IC50 [2, 11] [µM]",CC-v2 (curve classes) (recombinant human AChE [3]),Efficacy (recombinant human AChE [3]),"IC50 (recombinant human AChE [3]; potency (IC50), Enzyme) [µM]",IC50 (recombinant human AChE [4]) [µM],IC50 ([5]; SH-SY5Y spheroids (24 h)) [µM],IC50 ([5]; SH-SY5Y spheroids (48 h)) [µM],CC-v2 (curve classes) (recombinant human AChE [6]),Efficacy (recombinant human AChE [6]),IC50 [7] [µM],IC50 (recombinant human AChE [8]) [µM],IR or R (recombinant human AChE [1]),other results
CS/C(C)=N\OC(=O)N(C)SN(C)C(=O)O/N=C(\C)SC [Thiodicarb],-1.1,1.42 µM and 1.26 µM and 1.12 µM,2.81 ± 0.32,4.44 µM and 3.95 µM (2×) and 3.14 µM and 6.27 µM and 5.59 µM and 1.57 µM and 1.98 µM,7.63 ± 1.05,7.8 ± 2.18,-1.1,-104.676,7.03,3.97 ± 0.46,1.58 ± 0.57,2.62 ± 0.47,-2.1,-115.189,5.43 ± 0.92,5.48 ± 1.36,–,–
CNC(=O)ON=C(CSC)C(C)(C)C [Thiofanox],-1.1,1.59 µM and 1.78 µM,3.04 ± 0.41,2.8 µM and 4.44 µM and 4.98 µM and 3.95 µM and 2.22 µM and 1.4 µM and 1.98 µM,2.83 ± 0.59,3.64,-1.1,-92.082,1.91 ± 0.26,3.18 ± 0.59,6.89 ± 6.18,3.46 ± 0.86,-1.1,-91.728,4.83 ± 0.82,2.59 ± 0.17,–,–
CCOC(=O)CC(SP(=O)(OC)OC)C(=O)OCC (centres unmarked) [Malaoxon],-1.1,3.56 µM and 3.02 µM and 3.17 µM and 2.83 µM,3.05 ± 0.52,22.2 µM (2×) and 9.93 µM and 7.89 µM and 25 µM and 8.85 µM (2×) and 5.59 µM and 11.1 µM,5.05 ± 3.3,9.46,-1.1,–,1.46,4.62 ± 0.31,4.09 ± 3.42,3.95,-2.1,–,5.86 ± 1.05,4.43,–,–
Cc1cc(OC(=O)N(C)C)nn1C(=O)N(C)C [Dimetilan],-1.1,7.1 µM,6.89 ± 3.77,49.8 µM (2×) and 31.4 µM and 19.8 µM (2×) and 55.9 µM and 12.5 µM and 5.59 µM and 14 µM,1.53 ± 0.26,3.12 ± 1.72,-1.1,-84.168,16 ± 3.66,11.6 ± 1.49,15.8 ± 16.9,7.03,-2.1,-61.098,4.45 ± 0.51,9.97 ± 1.14,R,–
Cc1c(Cl)c(=O)oc2cc(OP(=O)(OCCCl)OCCCl)ccc12 [Haloxon],-1.1,3.89 µM and 4.36 µM and 3.09 µM,1.51 ± 0.09,1.4 µM and 1.57 µM (2×) and 1.11 µM (2×) and 1.25 µM and 885 nM and 993 nM,0.2 ± 0.17,0.18 ± 0.05,-1.1,-92.736,0.63 ± 0.11,1.35 ± 0.09,0.88 ± 0.64,1.12 ± 0.13,-1.1,-94.886,0.39,2.81 ± 0.32,–,–
"C=CC[N+]1([C@H]2C[C@H]3[C@@H]4CC[C@H]5C[C@H](OC(C)=O)[C@@H](N6CCCCC6)C[C@]5(C)[C@H]4CC[C@]3(C)[C@H]2OC(=O)CC)CCCCC1 [Rapacuronium bromide, reference compound]",-2.1,27.5 µM and 30.9 µM and 34.7 µM,16,–,3.64,1.37,-2.2,-53.371,22.6,26.3 ± 1.71,8.24,22.6,4,0,5.27,26.3,R,AC50 (recombinant human AChE [1]; activity_5): 21.7 µM and 19.3 µM; AC50 (recombinant human AChE [1]; activity_10): 13.7 µM and 21.7 µM and 19.3 µM; AC50 (recombinant human AChE [1]; activity_60): 21.7 µM and 38.5 µM and 19.3 µM; IC50 (recombinant human AChE [3]; IC50 (uM)): 30.9 µM
CCOP(=S)(OCC)SCSc1ccc(Cl)cc1 [Carbophenothion],–,89.4 µM,–,19.3 µM and 17.2 µM and 21.7 µM,2.19,3.31,-2.2,-28.575,–,–,28.1,19.6,4,-18.784,2.96,3.74,–,"potency (IC50), SH-SY5Y cells monolayer (AChE in SH-SY5Y cells): Inactive; AChE inhibition (result in words) (recombinant human AChE [3]): did not show effects; potency (IC50), Enzyme (recombinant human AChE [3]): Inactive; IC50 (recombinant human AChE [3]; IC50 (uM)): 89.4 µM; potency (IC50), Enzyme-based assay with heat-inactivated microsomes (recombinant human AChE [4]): Inactive"
"O=c1[nH]c2ccc([S+]([O-])CCN3CCC(Cc4ccc(F)cc4)CC3)cc2o1 (centres unmarked) [Besonprodil, reference compound]",-1.1,6.33 µM,8.57 ± 1.17,14 µM (2×) and 9.93 µM (2×) and 15.7 µM (2×) and 7.03 µM,11.5 ± 3.7,–,-1.1,-92.894,7.92 ± 0.91,16.4 ± 1.11,4.75 ± 3.24,7.44 ± 1.68,-2.1,-73.433,15.8 ± 1.81,15.8 ± 1.81,R,"potency (IC50), Neural stem cell spheroid (48 h) [2]: Inactive"
CNC(=O)O/N=C/C(C)(C)[S+](C)[O-] (centres unmarked) [Aldicarb sulfoxide],-1.1,0.354 µM and 0.322 µM and 0.397 µM and 0.287 µM,0.67 ± 0.04,498 nM and 789 nM and 885 nM and 993 nM and 1.11 µM and 559 nM (2×) and 198 nM and 627 nM,0.24 ± 0.03,0.27 ± 0.17,-1.1,–,0.41 ± 0.02,0.78 ± 0.22,0.46 ± 0.08,0.56,-1.1,–,0.34 ± 0.04,0.68 ± 0.09,–,fold more potent than aldicarb (recombinant human AChE [3]): 15 fold; IC50 (recombinant human AChE [3]; IC50): 0.61 µM
"CCOC(=O)c1ccc(NC(=O)CN2CCCCC2)cc1 [Sulcaine, reference compound]",-2.1,30.9 µM and 27.5 µM and 15.5 µM,15.3,–,15.6,13.7,-2.2,-40.558,20.1,23.4 ± 1.53,12.9,20.9,4,0,19.6,23.4,R,AC50 (recombinant human AChE [1]; activity_5): 24.3 µM and 27.3 µM; AC50 (recombinant human AChE [1]; activity_10): 24.3 µM and 27.3 µM; AC50 (recombinant human AChE [1]; activity_60): 21.7 µM and 27.3 µM; IC50 (recombinant human AChE [3]; IC50 (uM)): 30.9 µM
CNC(=O)Oc1ccc(N(C)C)c(C)c1 [Aminocarb],-1.1,5.64 µM and 7.1 µM and 6.33 µM,5 ± 0.57,17.7 µM and 22.2 µM and 12.5 µM and 28 µM and 25 µM and 7.03 µM and 11.1 µM and 7.89 µM,25.7 ± 7.15,29.1,-1.1,-98.887,7.92 ± 0.91,9.57 ± 0.62,12.3 ± 9.41,6.85 ± 3.73,-2.1,-71.886,11.7 ± 2.1,8.21 ± 0.55,–,–
